# From ChEMBL document CHEMBL5465560, “Selectivity Literature for EUbOPEN Chemogenomic Library” (2024)
# Tests used:
# [1] = biological target: Ribosomal protein S6 kinase alpha-4 (Homo sapiens) (UniProt O75676); assay: Selectivity interaction (KinomeScan (DiscoverX)) EUB0001049a RPS6KA4; conditions: at 1 µM
# [2] = biological target: T1, Serine/threonine-protein kinase Sgk1 (Homo sapiens) (UniProt O00141); assay: Selectivity interaction (KinomeScan (DiscoverX)) EUB0000666a SGK1; conditions: at 10 µM
# T1 sequence (whole entry): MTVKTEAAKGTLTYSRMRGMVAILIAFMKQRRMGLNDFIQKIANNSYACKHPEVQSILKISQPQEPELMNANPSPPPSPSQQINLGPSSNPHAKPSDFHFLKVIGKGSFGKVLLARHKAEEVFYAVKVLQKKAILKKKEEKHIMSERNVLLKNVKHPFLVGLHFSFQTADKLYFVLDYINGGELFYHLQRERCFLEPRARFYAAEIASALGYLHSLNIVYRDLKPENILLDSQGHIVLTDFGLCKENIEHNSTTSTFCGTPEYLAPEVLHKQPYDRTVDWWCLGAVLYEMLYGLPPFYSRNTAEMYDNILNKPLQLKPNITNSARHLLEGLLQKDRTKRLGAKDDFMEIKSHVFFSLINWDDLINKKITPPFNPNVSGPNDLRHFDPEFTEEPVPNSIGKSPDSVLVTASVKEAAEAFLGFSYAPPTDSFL
# [3] = biological target: Activin receptor type-2A (Homo sapiens) (UniProt P27037); assay: Selectivity interaction (KinomeScan (DiscoverX)) EUB0000666a ACVR2A; conditions: at 10 µM
# [4] = biological target: Thromboxane-A synthase (Homo sapiens) (UniProt P24557); assay: Selectivity interaction (Eurofins safety panel) EUB0001564a CYP5A1; conditions: at 10 µM
# [5] = biological target: Mast/stem cell growth factor receptor Kit (Homo sapiens, UniProt P10721); assay: Selectivity interaction (Kinase panel (Invitrogen)) EUB0000639a KIT; conditions: at 200 nM
# [6] = biological target: T2, Receptor-interacting serine/threonine-protein kinase 1 (Homo sapiens) (UniProt Q13546); assay: Selectivity interaction (Ambit KINOMEscan and KiNATiv profiling in Jurkat cells) EUB0000090b RIPK1; type: cell-based; conditions: at 1 µM
# T2 sequence (whole entry): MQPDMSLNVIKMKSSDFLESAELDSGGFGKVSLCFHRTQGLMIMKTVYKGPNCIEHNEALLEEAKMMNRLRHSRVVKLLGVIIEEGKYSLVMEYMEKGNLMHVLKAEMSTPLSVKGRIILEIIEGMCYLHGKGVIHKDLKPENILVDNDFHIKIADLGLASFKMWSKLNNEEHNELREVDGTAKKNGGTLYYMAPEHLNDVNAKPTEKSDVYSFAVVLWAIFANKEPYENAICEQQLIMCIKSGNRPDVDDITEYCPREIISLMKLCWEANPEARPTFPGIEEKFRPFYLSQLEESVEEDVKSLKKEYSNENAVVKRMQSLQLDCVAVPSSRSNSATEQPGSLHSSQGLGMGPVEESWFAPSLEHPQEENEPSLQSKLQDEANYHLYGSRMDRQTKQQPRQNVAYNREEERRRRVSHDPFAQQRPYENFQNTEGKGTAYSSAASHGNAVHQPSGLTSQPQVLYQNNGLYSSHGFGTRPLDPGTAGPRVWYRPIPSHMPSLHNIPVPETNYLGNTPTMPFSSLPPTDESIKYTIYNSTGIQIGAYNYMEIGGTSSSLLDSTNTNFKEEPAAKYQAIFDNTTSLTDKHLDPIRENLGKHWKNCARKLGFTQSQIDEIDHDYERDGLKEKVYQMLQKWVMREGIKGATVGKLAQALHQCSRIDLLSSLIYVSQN
# [7] = biological target: MAP/microtubule affinity-regulating kinase 3 (Homo sapiens) (UniProt P27448); assay: Selectivity interaction (Ambit KINOMEscan and KiNATiv profiling in Jurkat cells) EUB0000090b MARK3; type: cell-based; conditions: at 1 µM
# [8] = biological target: T3, Tyrosine-protein kinase Mer (Homo sapiens) (UniProt Q12866); assay: Selectivity interaction (KinomeScan (DiscoverX)) EUB0000045b MERTK
# T3 sequence (whole entry): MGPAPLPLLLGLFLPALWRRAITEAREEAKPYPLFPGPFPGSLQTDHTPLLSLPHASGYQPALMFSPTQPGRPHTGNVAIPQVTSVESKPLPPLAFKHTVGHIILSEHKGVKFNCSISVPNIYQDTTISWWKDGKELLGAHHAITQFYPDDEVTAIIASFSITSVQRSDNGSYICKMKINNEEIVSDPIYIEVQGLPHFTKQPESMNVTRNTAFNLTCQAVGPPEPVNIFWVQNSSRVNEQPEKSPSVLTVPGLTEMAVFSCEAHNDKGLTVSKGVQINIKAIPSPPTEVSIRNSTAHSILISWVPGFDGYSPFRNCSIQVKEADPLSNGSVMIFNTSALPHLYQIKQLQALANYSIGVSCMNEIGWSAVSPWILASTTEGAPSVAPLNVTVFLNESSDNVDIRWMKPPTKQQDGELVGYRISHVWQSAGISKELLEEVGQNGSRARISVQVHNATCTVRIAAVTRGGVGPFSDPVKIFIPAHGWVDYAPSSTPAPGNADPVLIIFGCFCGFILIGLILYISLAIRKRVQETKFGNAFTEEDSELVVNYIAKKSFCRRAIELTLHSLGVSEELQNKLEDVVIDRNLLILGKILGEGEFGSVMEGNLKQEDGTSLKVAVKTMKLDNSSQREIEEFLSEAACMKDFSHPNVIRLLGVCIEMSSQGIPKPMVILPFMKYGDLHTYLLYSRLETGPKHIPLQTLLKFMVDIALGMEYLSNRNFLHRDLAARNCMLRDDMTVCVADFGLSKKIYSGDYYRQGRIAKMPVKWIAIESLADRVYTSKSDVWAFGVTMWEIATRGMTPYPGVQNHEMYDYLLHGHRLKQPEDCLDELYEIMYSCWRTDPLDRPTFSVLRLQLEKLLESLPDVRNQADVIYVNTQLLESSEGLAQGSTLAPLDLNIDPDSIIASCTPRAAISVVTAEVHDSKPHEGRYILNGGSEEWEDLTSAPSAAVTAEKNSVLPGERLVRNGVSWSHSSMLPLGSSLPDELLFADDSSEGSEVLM
# [9] = biological target: Death-associated protein kinase 3 (Homo sapiens) (UniProt O43293); assay: Selectivity interaction (KinomeScan (DiscoverX)) EUB0000045b DAPK3
# Sequence of Death-associated protein kinase 3 (Homo sapiens) (O43293 whole entry, looked up): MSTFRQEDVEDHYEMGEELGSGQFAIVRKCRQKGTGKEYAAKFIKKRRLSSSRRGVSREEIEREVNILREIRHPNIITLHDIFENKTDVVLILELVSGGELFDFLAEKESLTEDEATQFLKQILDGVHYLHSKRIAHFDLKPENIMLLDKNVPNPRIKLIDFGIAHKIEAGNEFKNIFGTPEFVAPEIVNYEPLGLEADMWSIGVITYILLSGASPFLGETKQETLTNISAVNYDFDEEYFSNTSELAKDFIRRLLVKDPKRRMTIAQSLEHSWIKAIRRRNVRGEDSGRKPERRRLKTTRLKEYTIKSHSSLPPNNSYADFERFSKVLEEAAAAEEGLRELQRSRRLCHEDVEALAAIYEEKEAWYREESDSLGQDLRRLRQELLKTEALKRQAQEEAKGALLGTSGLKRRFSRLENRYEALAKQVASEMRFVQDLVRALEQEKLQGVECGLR
# Sequence of Ribosomal protein S6 kinase alpha-4 (Homo sapiens) (O75676 whole entry, looked up): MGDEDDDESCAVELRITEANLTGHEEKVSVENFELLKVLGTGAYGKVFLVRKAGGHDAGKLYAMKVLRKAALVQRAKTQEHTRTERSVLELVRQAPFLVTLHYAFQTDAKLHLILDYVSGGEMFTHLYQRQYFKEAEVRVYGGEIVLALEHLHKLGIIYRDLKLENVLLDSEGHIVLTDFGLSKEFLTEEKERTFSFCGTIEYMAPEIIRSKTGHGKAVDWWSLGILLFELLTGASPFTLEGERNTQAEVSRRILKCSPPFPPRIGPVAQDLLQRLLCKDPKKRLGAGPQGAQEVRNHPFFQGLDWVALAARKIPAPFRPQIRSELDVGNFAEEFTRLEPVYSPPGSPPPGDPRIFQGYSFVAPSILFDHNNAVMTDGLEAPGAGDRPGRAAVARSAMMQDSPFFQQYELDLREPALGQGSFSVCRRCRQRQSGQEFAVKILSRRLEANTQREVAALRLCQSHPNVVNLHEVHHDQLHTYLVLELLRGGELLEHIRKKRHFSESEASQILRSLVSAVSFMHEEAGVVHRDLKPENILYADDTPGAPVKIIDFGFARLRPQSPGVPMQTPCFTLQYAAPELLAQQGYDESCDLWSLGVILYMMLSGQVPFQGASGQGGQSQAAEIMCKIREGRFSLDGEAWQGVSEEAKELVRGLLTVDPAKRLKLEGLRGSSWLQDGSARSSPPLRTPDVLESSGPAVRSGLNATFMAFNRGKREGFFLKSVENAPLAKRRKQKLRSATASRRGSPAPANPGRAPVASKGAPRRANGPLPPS
# Sequence of Activin receptor type-2A (Homo sapiens) (P27037 whole entry): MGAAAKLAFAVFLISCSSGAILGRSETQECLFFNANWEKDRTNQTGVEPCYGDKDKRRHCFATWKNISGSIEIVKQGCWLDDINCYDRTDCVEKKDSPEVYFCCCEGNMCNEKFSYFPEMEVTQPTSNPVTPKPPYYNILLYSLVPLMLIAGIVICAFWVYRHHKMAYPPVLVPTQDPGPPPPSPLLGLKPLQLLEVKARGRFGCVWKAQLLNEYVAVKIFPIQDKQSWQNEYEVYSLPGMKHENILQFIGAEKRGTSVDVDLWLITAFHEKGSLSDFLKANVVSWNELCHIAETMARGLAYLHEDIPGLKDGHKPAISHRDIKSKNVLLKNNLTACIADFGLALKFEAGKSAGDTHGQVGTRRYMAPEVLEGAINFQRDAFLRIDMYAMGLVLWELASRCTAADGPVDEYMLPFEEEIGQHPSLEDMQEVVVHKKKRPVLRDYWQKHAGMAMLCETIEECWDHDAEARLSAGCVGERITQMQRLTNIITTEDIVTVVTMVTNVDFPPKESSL
# Sequence of MAP/microtubule affinity-regulating kinase 3 (Homo sapiens) (P27448 whole entry, looked up): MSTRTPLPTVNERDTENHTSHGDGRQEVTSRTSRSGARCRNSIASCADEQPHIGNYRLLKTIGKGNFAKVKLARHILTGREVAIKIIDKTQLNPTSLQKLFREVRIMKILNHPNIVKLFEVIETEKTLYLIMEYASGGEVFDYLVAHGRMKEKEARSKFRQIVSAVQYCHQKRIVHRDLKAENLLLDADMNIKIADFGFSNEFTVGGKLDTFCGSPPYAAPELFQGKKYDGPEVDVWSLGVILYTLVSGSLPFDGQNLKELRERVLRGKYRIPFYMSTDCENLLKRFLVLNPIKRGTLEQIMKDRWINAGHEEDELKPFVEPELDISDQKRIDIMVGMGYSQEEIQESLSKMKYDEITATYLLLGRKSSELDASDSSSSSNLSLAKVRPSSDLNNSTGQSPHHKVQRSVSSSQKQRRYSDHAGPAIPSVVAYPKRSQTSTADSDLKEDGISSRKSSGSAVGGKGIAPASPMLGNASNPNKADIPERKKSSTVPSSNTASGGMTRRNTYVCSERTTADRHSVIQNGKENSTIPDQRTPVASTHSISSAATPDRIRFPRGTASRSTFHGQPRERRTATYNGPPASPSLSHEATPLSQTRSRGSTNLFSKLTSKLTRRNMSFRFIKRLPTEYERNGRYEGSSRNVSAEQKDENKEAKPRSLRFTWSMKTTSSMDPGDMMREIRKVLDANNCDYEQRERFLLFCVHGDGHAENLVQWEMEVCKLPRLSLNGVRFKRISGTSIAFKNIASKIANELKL
# Sequence of Mast/stem cell growth factor receptor Kit (P10721 whole entry): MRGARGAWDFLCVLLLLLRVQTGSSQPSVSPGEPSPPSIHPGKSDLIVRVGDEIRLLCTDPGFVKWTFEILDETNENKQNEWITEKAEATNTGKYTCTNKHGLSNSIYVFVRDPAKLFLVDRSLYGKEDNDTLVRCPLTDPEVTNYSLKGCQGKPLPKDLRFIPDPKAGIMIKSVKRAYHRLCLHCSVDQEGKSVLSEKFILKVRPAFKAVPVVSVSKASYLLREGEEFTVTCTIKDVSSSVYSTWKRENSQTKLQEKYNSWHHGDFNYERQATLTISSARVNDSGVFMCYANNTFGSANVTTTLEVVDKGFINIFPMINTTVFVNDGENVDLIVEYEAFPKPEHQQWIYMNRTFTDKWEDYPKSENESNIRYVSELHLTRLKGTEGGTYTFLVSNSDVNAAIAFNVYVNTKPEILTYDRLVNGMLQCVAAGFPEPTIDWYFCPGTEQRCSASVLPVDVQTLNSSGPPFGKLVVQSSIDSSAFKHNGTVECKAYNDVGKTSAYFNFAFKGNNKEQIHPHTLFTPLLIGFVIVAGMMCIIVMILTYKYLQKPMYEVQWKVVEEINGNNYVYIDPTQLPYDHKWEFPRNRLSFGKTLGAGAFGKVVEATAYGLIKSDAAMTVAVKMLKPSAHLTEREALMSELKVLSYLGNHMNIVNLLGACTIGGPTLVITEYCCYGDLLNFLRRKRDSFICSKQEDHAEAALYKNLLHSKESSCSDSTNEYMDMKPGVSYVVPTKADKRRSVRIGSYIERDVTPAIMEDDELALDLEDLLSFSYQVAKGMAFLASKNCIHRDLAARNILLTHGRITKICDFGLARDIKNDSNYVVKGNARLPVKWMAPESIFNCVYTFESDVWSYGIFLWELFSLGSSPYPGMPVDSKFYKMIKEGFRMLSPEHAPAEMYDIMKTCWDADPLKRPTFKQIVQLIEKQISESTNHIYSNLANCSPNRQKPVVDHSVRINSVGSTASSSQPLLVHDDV
# Sequence of Thromboxane-A synthase (Homo sapiens) (P24557 whole entry): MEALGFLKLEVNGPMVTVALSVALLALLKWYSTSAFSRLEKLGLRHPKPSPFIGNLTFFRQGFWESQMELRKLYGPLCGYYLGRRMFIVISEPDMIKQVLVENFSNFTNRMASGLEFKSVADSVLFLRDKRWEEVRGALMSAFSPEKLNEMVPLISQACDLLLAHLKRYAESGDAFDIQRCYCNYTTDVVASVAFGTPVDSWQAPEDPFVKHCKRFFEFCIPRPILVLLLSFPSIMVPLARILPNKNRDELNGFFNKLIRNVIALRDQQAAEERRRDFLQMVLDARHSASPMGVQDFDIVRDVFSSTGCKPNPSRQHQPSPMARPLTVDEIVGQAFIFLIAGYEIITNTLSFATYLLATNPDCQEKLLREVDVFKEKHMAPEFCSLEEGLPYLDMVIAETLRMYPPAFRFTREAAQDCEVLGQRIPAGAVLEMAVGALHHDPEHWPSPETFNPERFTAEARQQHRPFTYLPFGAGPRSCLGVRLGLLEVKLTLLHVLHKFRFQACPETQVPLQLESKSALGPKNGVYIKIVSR
smiles,measurement,setting,value
COc1cc(Nc2nc(C)cc(-c3cnn4nc(OC)ccc34)n2)cc(C(F)(F)F)c1,% of control,[1],96%
O=C(NOC[C@H](O)CO)c1ccc(F)c(F)c1Nc1ccc(I)cc1F,% of control,[2],100%
same,% of control,[3],80%
CC[C@@H](Nc1c(C#N)c(-c2ccc(-c3cccc(C)c3F)cc2)nc2cnccc12)C(=O)O [BAY-091],% of inhibition,[4],98%
CC[C@@H]1[C@H](F)C(=O)N[C@@H]1COc1nccc2cc(C(N)=O)c(OC)cc12 [ZIMLOVISERTIB],% of inhibition,[5],0.275%
CN(C)C/C=C/C(=O)Nc1ccc(C(=O)N2CCCC(Nc3ncc(Cl)c(-c4c[nH]c5ccccc45)n3)C2)cc1 (stereo unspecified),% of control,[6],94%
same,% of control,[7],88%
C=CC(=O)Nc1cc(-n2c(=O)ccc3cnc4ccc(-c5ccc(NS(C)(=O)=O)cc5)cc4c32)ccc1C,% of control,[8]; at 1 µM,72%
same,% of control,[8]; at 10 µM,100%
same,% of control,[9]; at 1 µM,100%
same,% of control,[9]; at 10 µM,60%
